The test has as its system mice. As to the kind of experiment: Passive avoidance test (scopolamine-induced memory decline). The class given is in vivo, mouse. To be noted: scopolamine 1 mg/kg; for Retention time: measured up to 300 seconds. As to the method:
Passive avoidance test was performed to identify the memory improvement effect of the above 8 oleanolic acid saponin or hederagenin saponin substances in the body. Also, oleanolic acid and hederagenin, aglycons of the saponin compounds, were included in the test. A shuttle box measuring 50 cm×15 cm×40 cm was used. The box was divided into two compartments by a guillotine door. One compartment was brightly illuminated and the other was covered by black cloth. A mouse was placed in the illuminated compartment. Then, when the guillotine door was open, the mouse moved into the dark compartment within 20 seconds because it prefers darkness. The guillotine door was closed automatically as soon as the mouse entered the dark compartment. In this way, the latency time, or the time that elapsed until a mouse left the illuminated compartment and entered the dark compartment, was determined. On the first day, this training trial was performed until all the mice entered the dark compartment within 20 seconds. On the following day, the trained mice were placed in the illuminated compartment, one at a time, and were allowed to move into the dark compartment. When the mice entered the dark compartment, a foot-shock (0.8 mA, 3 seconds) was delivered through the electronic grid equipped on the floor of the dark compartment. 24 hours after this acquisition trial, the mice were placed in the illuminated compartment and were allowed to move into the dark compartment. Then, normal mice hesitated to move into the dark compartment remembering the shock of the day before. The time elapsed until the mice entered the dark compartment was measured up to 300 seconds. Retention time was measured to evaluate the memory improvement effect. Neither scopolamine nor the drug was administered to the control group. Scopolamine (1 mg/kg), which is known to decline memory function by inhibiting the transfer of neurotransmitters, was administered. An hour later, saponin (30 mg/kg) and aglycon (30 mg/kg), […] (donepezil, 1 mg/kg, positive control) and water (negative control) were administered.

Setting [1] is: saponin or aglycon 30 mg/kg administered once orally 1 hour later, 24 hours after acquisition trial.
Setting [2] is: saponin or aglycon 30 mg/kg 1 hour later.

On to “3-O-β-D-Xylopyranosyl(1→2)-β-D-galactopyranosyl(1→3)-β-D-glucolopyranosyloleanolic acid [Elatoside A]”, for which the “Retention time” value under setting [1] amounted to 166.0 ± 24.8 s.
With “3-O-β-D-Xylopyranosyl(1→2)-β-D-galactopyranosyl(1→3)-β-D-glucolopyranosyloleanolic acid-28-O-β-D-glucopyranosyl ester [Elatoside C]”, the “Retention time” value under setting [1] stood at 160.1 ± 15.6 s.
As for `COc1cc2c(cc1OC)C(=O)C(CC1CCN(Cc3ccccc3)CC1)C2` (centres unmarked) [Aricept, donepezil, reference compound], the “times longer retention time than the negative control group (water)” value (Aricept 1 mg/kg orally 1 hour later) was determined as 1.6 times. In addition, the “Retention time” value (Aricept (donepezil) 1 mg/kg orally 1 hour later, positive control) came out at 98.5 ± 10.6 s.
In the case of `C[C@@H]1O[C@@H](O[C@H]2[C@H](O[C@H]3CC[C@]4(C)[C@H]5CC=C6[C@@H]7CC(C)(C)CC[C@]7(C(=O)O)CC[C@@]6(C)[C@]5(C)CC[C@H]4C3(C)C)OC[C@H](O)[C@@H]2O)[C@H](O)[C@H](O)[C@H]1O` [Eleutheroside K, 3-O-α-L-Rhamnopyranosyl(1→2)-α-L-arabinopyranosyloleanolic acid], under setting [1], the “Retention time” value came to 182.6 ± 15.9 s.
`CC1OC(OC2C(CO)OC(OCC3OC(OC(=O)C45CCC(C)(C)CC4C4=CCC6C7(C)CCC(OC8OCC(OC9OC(CO)C(O)C(O)C9OC9OC(C)C(O)C(O)C9O)C(O)C8O)C(C)(C)C7CCC6(C)C4(C)CC5)C(O)C(O)C3O)C(O)C2O)C(O)C(O)C1O` [Hederacolchiside E, 3-O-α-L-Rhamnopyranosyl(1→2)-β-D-glucopyranosyl(1→4)-α-L-arabinopyranosyloleanolic acid-28-O-α-L-rhamnopyranosyl(1→4)-β-D-glucopyranosyl(1→6)-β-D-glucopyranosyl ester]: the “Retention time” value under setting [1] was determined as 155.7 ± 31.2 s.
For the molecule `CC1(C)CC[C@]2(C(=O)O)CC[C@]3(C)C(=CC[C@@H]4[C@@]5(C)CC[C@H](O)[C@@](C)(CO)[C@@H]5CC[C@]43C)[C@@H]2C1` [Hederagenin, hederagenin, reference compound], the “times longer retention time than the negative control group (water)” value under setting [2] was determined as 2.3 times. Moreover, the “Retention time” value under setting [1] came out at 142.8 ± 32.6 s.
Consider `C[C@@H]1O[C@@H](O[C@H]2[C@H](O[C@H]3CC[C@]4(C)[C@H]5CC=C6[C@@H]7CC(C)(C)CC[C@]7(C(=O)O[C@@H]7O[C@H](CO[C@@H]8O[C@H](CO)[C@@H](O[C@@H]9O[C@@H](C)[C@H](O)[C@@H](O)[C@H]9O)[C@H](O)[C@H]8O)[C@@H](O)[C@H](O)[C@H]7O)CC[C@@]6(C)[C@]5(C)CC[C@H]4C3(C)C)OC[C@H](O)[C@@H]2O)[C@H](O)[C@H](O)[C@H]1O` [Hederasaponin B, 3-O-α-L-Rhamnopyranosyl(1→2)-α-L-arabinopyranosyloleanolic acid-28-O-α-L-rhamnopyranosyl(1→4)-β-D-glucopyranosyl(1→6)-β-D-glucopyranosyl ester], for which, under setting [1], the “Retention time” value is 172.3 ± 29.1 s.
On to `C[C@@H]1O[C@@H](O[C@H]2[C@H](O[C@H]3CC[C@@]4(C)[C@@H](CC[C@]5(C)[C@@H]4CC=C4[C@@H]6CC(C)(C)CC[C@]6(C(=O)O[C@@H]6O[C@H](CO[C@@H]7O[C@H](CO)[C@@H](O[C@@H]8O[C@@H](C)[C@H](O)[C@@H](O)[C@H]8O)[C@H](O)[C@H]7O)[C@@H](O)[C@H](O)[C@H]6O)CC[C@]45C)[C@]3(C)CO)OC[C@H](O)[C@@H]2O)[C@H](O)[C@H](O)[C@H]1O` [Kalopanaxsaponin B, 3-O-α-L-Rhamnopyranosyl(1→2)-α-L-arabinopyranosylhederagenin-28-O-α-L-rhamnopyranosyl(1→4)-β-D-glucopyranosyl(1→6)-β-D-glucopyranosyl ester], for which the “Retention time” value under setting [1] was determined as 170.5 ± 24.6 s.
For `C[C@@H]1O[C@@H](O[C@H]2[C@H](OC[C@H]3O[C@@H](OC(=O)[C@]45CCC(C)(C)C[C@H]4C4=CC[C@@H]6[C@@]7(C)CC[C@H](O[C@@H]8OC[C@H](O)[C@H](O)[C@H]8O)[C@@](C)(CO)[C@@H]7CC[C@@]6(C)[C@]4(C)CC5)[C@H](O)[C@@H](O)[C@@H]3O)OC[C@@H](O)[C@@H]2O)[C@H](O)[C@H](O)[C@H]1O` [Loniceroside A, 3-O-α-L-Arabinopyranosylhederagenin-28-O-α-L-rhamnopyranosyl(1→2)-β-D-xylopyranosyl(1→6)-β-D-glucopyranosyl ester], the “Retention time” value under setting [1] was 175.3 ± 21.1 s.
Same read-out and setting: for `CC1OC(OC2C(OCC3OC(OC(=O)C45CCC(C)(C)CC4C4=CCC6C7(C)CCC(OC8OCC(O)C(O)C8OC8OC(C)C(O)C(O)C8O)C(C)(CO)C7CCC6(C)C4(C)CC5)C(O)C(O)C3O)OCC(O)C2O)C(O)C(O)C1O` [Loniceroside B, 3-O-α-L-Rhamnopyranosyl(1→2)-α-L-arabinopyranosylhederagenin-28-O-α-L-rhamnopyranosyl(1→2)-β-D-xylopyranosyl(1→6)-β-D-glucopyranosyl ester] the value was 169.7 ± 25.4 s.
For the molecule `CC1(C)CC[C@]2(C(=O)O)CC[C@]3(C)C(=CC[C@@H]4[C@@]5(C)CC[C@H](O)C(C)(C)[C@@H]5CC[C@]43C)[C@@H]2C1` [Oleanolic acid, oleanolic acid, reference compound], the “times longer retention time than the negative control group (water)” value under setting [2] is reported as 2.4 times. For the same molecule, under setting [1], the “Retention time” value came out at 149.4 ± 19.7 s.

Source of the values: patent US20100190968A1, “OLEANANE TRITERPENE SAPONIN COMPOUNDS WHICH ARE EFFECTIVE ON TREATMENT OF DEMENTIA AND MILD COGNITIVE IMPAIRMENT (MCI) AND IMPROVEMENT OF COGNITIVE FUNCTION” (priority 2006, published 2010).
